Laboratory results reported in patent US11980592B2, “Cannabinoid-containing complex mixtures for the treatment of neurodegenerative diseases” (GBS GLOBAL BIOPHARMA, INC., priority 2016, dated 2024).

Test system: Cath.a cells
Assay: TRPV1-induced calcium-mediated cell death (Trypan Blue positivity)
Assay type: cell-based
Protocol: We therefore studied susceptibility of HEK wild type cells, TRPV1 overexpressing HEK cells, and Cath.a cells to TRPV1-induced calcium-mediated cell death.
Cells were plated into tissue culture dishes and treated with either vehicle (HEK wild type and Cath.a) or tetracycline (1 micromolar) for 16 h to induce TRPV1 expression (HEK-TRPV1) at 37° C. in a […] atmosphere. After washing, media were replaced with a modified sodium Ringer solution containing 3% FBS and either 10 millimolar CaCl2 or zero added CaCl2 and 1 millimolar EGTA. […] After 2 minutes, aliquots of 7 microliters of cell suspension were counted in a hemocytometer and field of at least 200 cells were scored for Trypan Blue positive or negative status.

SMILES: COc1cc(CNC(=O)CCCC/C=C/C(C)C)ccc1O [capsaicin]
- cell death (trypan blue positivity) in Cath.a cells (10 mM external CaCl2, 80 min after stimulation with 250 nM capsaicin): can induce cell death
- cell death (percent trypan blue positive cells) in Cath.a cells in the absence of external calcium (no external calcium, 80 min after stimulation with 250 nM capsaicin): dependent upon the presence of external calcium
